In patent US20260294863A1, “METHOD OF TREATING FIBROTIC-RELATED CONDITION” (YISSUM RESEARCH DEVELOPMENT COMPANY OF THE HEBREW …, priority 2023, published 2026):

Experiments:
[1] = Body weight in bleomycin-induced skin sclerosis; assay type: in vivo, C57BL/6 mice; conditions: 10 mg/kg/day in drinking fluid
Procedure: (§1) Male C57BL/6 mice aged 8 weeks were housed under pathogen-free conditions at a controlled temperature of 22-24° C., humidity and alternating 12-h light/dark cycles and provided with food and water ad libitum. Skin sclerosis was induced as described by Ravanetti et al, (2020). A small incision was made in the skin at the back caudal to the scapulae and subcutaneous pocket was created into which an Alzet micro-osmotic pump was implanted, and the incision closed with two stiches and a surgical clip. The pumps contained bleomycin, (delivered at the rate of 60 U/kg body weight) or saline (control) and were removed 10 days after implantation. The mice were monitored daily until they recovered completely and weighed twice weekly from the beginning of the experiment.
(§2) Ladostigil (10 mg/kg/day) was administered in the drinking fluid to 10 mice, housed 2/cage, from 3 days before bleomycin pump installation until the end of the experiment. The fluid intake of the mice was measured daily. The dose of ladostigil was adjusted accordingly. Bleomycin alone, (10 mice) and saline controls (6 mice) received regular drinking fluid.

[2] = test system: TGFβ; test: Cells containing TGFβ in the lung, bleomycin-induced lung fibrosis; assay type: in vivo, C57BL/6JOlaHsd mice; conditions: ladostigil + bleomycin; p<0.05
Procedure: The animal model of bleomycin-induced lung fibrosis is widely used to characterize the potential inhibitory effect of newly developed drugs (Distler et al. 2019). Experiments were performed in C57BL/6JOlaHsd male and female mice aged 12-13 weeks. Male mice weighed 23-27.3 g and female mice, 19.4-21.1 g. They were housed under pathogen-free conditions, up to 6 per cage, in IVC cages under a controlled temperature of 22-24° C., humidity and alternating 12-h light/dark cycles and provided with food and water ad libitum. […] TNFα and IL-6 in the bronchial fluid lavage was measured by ELISA as described in the preceding section.
Specimens taken from the left lung were embedded in paraffin and cut into 5 μm-thick slices. […] They were rehydrated and stained with a solution of Sirius red (100 mg/100 ml of [COMPOUND LEFT OUT], rinsed in distilled water until clear, dehydrated and mounted in a resinous medium. The red stain (also called “Sirius red” stain) is one of the best understood histochemical techniques. It relies on the birefringent properties of collagen and is much more specific than the other common collagen stains, Pulmonary fibrosis was evaluated on a score of 0-4 on 15-20 different fields taken from each lung section, according to the area and intensity of fibrotic staining in the field, excluding that in blood vessels. […]

[3] = test system: TNFα; test: Secretion of TNFα from BzATP/LPS-activated microglia (ELISA); assay type: cell-based, Balb/C mice
Procedure: Experiments were performed on primary microglial cells isolated from brains of neonatal Balb/C mice as previously described (Reichert and Rotshenker, 2003). The brains were stripped of their meninges and enzymatically dissociated. Cells were plated on Poly-L-lysine coated flasks for one week, re-plated for 1- to 2-hr on bacteriological plates and non-adherent cells were washed away. Microglia were propagated by incubation in 20% of medium, conditioned by the L-cell line that produces mouse-CSF. They were identified by morphology and positive immune-reactivity to P2y12, F4/80, complement receptor-3 and Galectin-3/MAC-2 (Reichert and Rotshenker 2003; Gitik et al. 2011).
Cytokines were measured as previously described (Shamash et al. 2002) using ELISA Max deluxe set (Biolegend, CA, USA) for secreted TNFα and IL-6 proteins and ELISA DuoSet (R&D systems, UK) for secreted and cell associated IL-1β, according to manufacturer's instructions.
The effect of ladostigil at concentrations of 1×10^−13 M to 1×10^−9 M on the secretion of cytokine proteins was assessed by adding it to microglia for 2 hr before LPS (0.75 μg/ml) and BzATP (400 μM). Other microglia were treated similarly with the steroid, budesonide as a reference standard at concentrations of 1× 10^−13 to 1× 10^−11 M. Measurements of cytokine secretion were performed 8 hrs after addition of LPS and BzATP. Since the levels of secreted IL-1β were still low, samples were concentrated 2- to 4-fold by an Amicon ultra-centrifugal filter device (Merck-Millipore, Ireland). ELISA was used to quantify the levels of cytokine proteins. Protein content in the microglia lysate was measured by Bradford and levels of cytokines were calculated and presented as pg/μg of microglial protein.

[4] = test system: skin sclerosis; test: Dermal and hypodermal thickness in bleomycin-induced skin sclerosis; assay type: in vivo, C57BL/6 mice; conditions: ladostigil 10 mg/kg/day + bleomycin; p<0.05
Procedure: as §1, §2
Skin was harvested on the gluteal region to avoid dermal fibrosis artifact due to proximity to the site of implant. For histological assessment, the samples were dehydrated in a graded ethanol series, clarified in xylene, and paraffin embedded. They were mounted on slides and paraffin was removed. Sections of 5 μm thickness were cut with a rotary microtome and stained with hematoxylin and eosin (H&E)

[5] = test system: bleomycin-induced lung fibrosis; test: Lung fibrosis score / collagen content in bleomycin-induced lung fibrosis; assay type: in vivo, C57BL/6JOlaHsd mice
Procedure: The animal model of bleomycin-induced lung fibrosis is widely used to characterize the potential inhibitory effect of newly developed drugs (Distler et al. 2019). Experiments were performed in C57BL/6JOlaHsd male and female mice aged 12-13 weeks. Male mice weighed 23-27.3 g and female mice, 19.4-21.1 g. They were housed under pathogen-free conditions, up to 6 per cage, in IVC cages under a controlled temperature of 22-24° C., humidity and alternating 12-h light/dark cycles and provided with food and water ad libitum. In order to minimize the stress of daily injection, ladostigil (5 mg/Kg/day) was administered by micro-osmotic pumps, implanted subcutaneously under ketamine/xylazine anesthesia, 5 days before administration of bleomycin, and delivered for 3 weeks to mice of each sex. Saline (2-3/sex) and bleomycin controls were anesthetized as described above. Bleomycin solution (0.25 mg/kg in 50 μl) was instilled into the lumen of the trachea as shown in a video by Ehrentraut et al. (2019). […] Mice were weighed daily and sacrificed on day 21. Bronchial fluid was collected as described in Ehrentraut et al. (2019). TNFα and IL-6 in the bronchial fluid lavage was measured by ELISA as described in the preceding section.
Specimens taken from the left lung were embedded in paraffin and cut into 5 μm-thick slices. They were put on slides and paraffin was removed. They were rehydrated and stained with a solution of Sirius red (100 mg/100 ml of [COMPOUND LEFT OUT], rinsed in distilled water until clear, dehydrated and mounted in a resinous medium. The red stain (also called “Sirius red” stain) is one of the best understood histochemical techniques. It relies on the birefringent properties of collagen and is much more specific than the other common collagen stains, Pulmonary fibrosis was evaluated on a score of 0-4 on 15-20 different fields taken from each lung section, according to the area and intensity of fibrotic staining in the field, excluding that in blood vessels. Two independent scientists blinded to the treatment performed the analysis. For TGFβ1 staining, slides were deparaffinized and rehydrated. Antigen retrieval was performed in Tris-based buffer, pH 9.0. Endogenous peroxidase activity was quenched by incubation in 3% H2O2. The tissue was permeabilized with Triton X-100 0.1% in PBS. After blocking, sections were incubated with primary antibody: diluted rabbit recombinant monoclonal TGFβ1 antibody (Abcam ab215715) over night, at 4° C. Slices were further incubated with the secondary antibody: ImmPRESS®-HRP Goat Anti-Rabbit IgG Polymer Detection Kit, Peroxidase (Vector labs VE-MP-7451-15) at room temperature. For color development, sections were incubated in peroxidase substrate solution DAB, at room temperature until desired stain intensity developed. They were then counterstained with filtered hematoxylin and cosin, cleared and mounted.
Experiments were performed in C57BL/6JOlaHsd male mice aged 12-13 weeks as described for ladostigil. AN1284 (2.5 mg/kg/day) was administered by micro-osmotic pumps, implanted subcutaneously under ketamine/xylazine anesthesia, 5 days before administration of bleomycin and delivered for 3 weeks. Mice were weighed daily, sacrificed on day 21 and bronchial fluid was collected. Fibrosis was measured by staining with Sirius red as described for ladostigil. TNFα and IL-6 in the bronchial fluid lavage was measured by ELISA as described for ladostigil.

C#CCN[C@@H]1CCc2ccc(OC(=O)N(C)CC)cc21 [Ladostigil, 6-(N-ethyl, N-methylcarbamyloxy)-N propargyl-1 (R)-aminoindan hemitartrate]
weight gain compared with bleomycin ([1]; days 18, 21, 24 and 27): greater than in those on bleomycin | increase in body weight ([1]; days 24-27, skin sclerosis): 15% | number of cells containing TGFβ in the lung [2]: significantly reduced the number of cells containing TGFβ | minimal effective concentration ([3]; Mus musculus, microglia, BzATP/LPS, medium containing BSA, 8 hrs, read-out: lowest concentration that significantly decreased TNFα secretion): 1e-07 µM | reduction of TNFα release ([3]; all concentrations tested, added 2 hrs before BzATP and LPS, 0.1% BSA, p<0.01): reduced the 3 cytokines significantly | dermal thickness [4]: significant reduction of dermal thickness | hypodermal thickness [4]: increase of hypodermal thickness | fibrosis (overall conclusion) ([5]; bleomycin-induced lung fibrosis murine model): shown to reduce fibrosis | collagen deposition (hydroxyproline) ([5]; both sexes, 5 mg/Kg/day): reduced collagen deposition | fibrosis (score) ([5]; females, 2.5 and 5 mg/Kg/day): significantly reduced fibrosis | fibrosis (score) ([5]; males, 5 and 10 mg/kg/day): significantly reduced fibrosis | anti-inflammatory effect in bleomycin-induced lung fibrosis model ([5]; mouse, in vivo): does not have an anti-inflammatory effect
